In patent publication US5344841A, “Bis-(hydroxylakylamino)-anthraquinone inhibitors of protein kinase C” (Sphinx Pharmaceuticals Corporation, priority 1992, dated 1994) one finds IC50 data, which are given here for one compound.

In test [1] the test system is MCF-7 human breast tumor cell line. Nature of the test: Human tumor growth inhibition, 3H-thymidine incorporation, MCF-7. In kind it is cell-based. To be noted: 3H-thymidine uptake; read-out: IC50 MCF-7. An excerpt: MCF-7 a human breast tumor cell line, and MCF-7/ADR an adriamycin resistant line of MCF-7 cells were obtained from the National Cancer Institute, Frederick, Md. NHEK a human keratinocyte cell line was obtained from Clonetic Corp., San Diego, Calif. 8226 a human myeloma cell line, 8226/MT a Mitoxantrone resistant line of 8226 cells, and 8226 ADR an adriamycin resistant line of 8226 cells were obtained from Dr. Bill Dalton, Arizona Cancer Center, Tuscon, Ariz.
Human tumor cells are trypsinized (0.05% trypsin, GIBCO), counted with a hemacytometer and seeded at a concentration of 10,000 cells/well in a 96 well microtiter plate. After allowing cells to attach to the surface overnight, the culture medium is aspirated and replaced with 100 μl of fresh medium. Test agents are diluted to determine dose response at 2× final concentration and added in quadruplicate at 100 μl/well to bring the total volume of each well to 200 μl. The microtiter plate is then incubated at 37° C. 5% CO2 overnight (18-24 hrs) before ^3 H-thymidine is added at a concentration of 0.5 μCi/well in 50 μl culture medium. The plate is incubated again for 4 hrs under the same conditions as above. Supernatant is then aspirated and 50 μl trypsin (0.05%, GIBCO) is added to each well. Cells are checked microscopically to determine detachment from surfaces, and plates are then harvested with a cell harvester (PHD, Cambridge Technology, Inc.) Filter papers corresponding to wells are placed in scintillation vials and counted to determine the amount of ^3 H-thymidine incorporated by the cells. Test agent response is compared to a positive control of cell wells with culture media only to determine the IC50. IC50 is the concentration of test compound required to inhibit fifty percent of the incorporation of ^3 H-thymidine into proliferating cells not exposed to test agent. Uptake of ^3 H-thymidine is a standard test for measuring the metabolism of cells. Cells which are actively proliferating take up ^3 H-thymidine, whereas cells that are not proliferating take up ^3 H-thymidine at much slower rates or not at all. Test agents that inhibit the uptake of ^3 H-thymidine thus slow the growth of cells.
For orientation: Incorporation of labelled thymidine or its analogues reports DNA synthesis.

For test [2], the system named is human neutrophils. Put plainly: Neutrophil superoxide anion (O2-) release assay, PMA-stimulated. In kind it is cell-based. To be noted: Homo sapiens, Neutrophil, PMA-stimulated O2- production. The method, then: Neutrophils were isolated form whole blood collected from human volunteers. All reagent materials were obtained from Sigma Chemical Company with the exception of isotonic saline (Travenol Lab., Inc. Deerfield, Ill.) and lymphocyte separation medium (Organon Teknika, Durham, N.C.). Whole blood was drawn and mixed with sodium heparin (final conc. 10 units/ml) to prevent clotting. An equal volume of dextran (3.0%) in isotonic saline was added, mixed, and allowed to settle for 30 min to bind red blood cells (RBC). The supernatant was removed, underlayered with lymphocyte separation medium and centrifuged for 40 min at 400 xg in a centrifuge (Beckman GPR, Norcross, Ga.). […] The washed pellet was resuspended in 10 ml HBSS and placed on ice before counting on a hemacytometer. The neutrophil cell concentration is adjusted to 2×10^6 cells/ml with HBSS before adding 0.8 ml cells to 12×75 mm polypropylene test tubes (Fisher Scientific). Test agents are diluted to determine dose response and added at 10×final concentration at a volume of 0.1 ml/tube in duplicate. […] Tubes are then centrifuged at 900 xg for 10 min, 0.5 ml supernatant is removed and added to 0.5 ml H2 O in a microcuvette. Optical density (OD) of cytochrome c is read in a spectrophotometer (Shimadzu) at 550 nm. The ΔOD of cytochrome c is obtained between PMA-stimulated and non-stimulated tubes, and the dose responses of the test agents are compared to the positive controls (which contain HBSS in place of test agents). PMA stimulates O2^- production which reduces cytochrome c. Reducing cytochrome c increases its absorbance, and the change in OD of cytochrome c is proportional to the amount of O2^- produced by PMA stimulation. Inhibition of the O2^- burst by test compounds of the invention is seen as a reduction in the change in optical density. Inhibition is expressed as IC50 μM and is the amount of test compound that will inhibit fifty percent of the PMA-stimulated respiratory outburst, i.e. O2^- production.

As for `CCN(CC)CC(O)CNc1ccc(NCC2CO2)c2c1C(=O)c1ccccc1C2=O` (centres unmarked) [Compound 1b-1, 1-(3-diethylamino-2-hydroxypropylamino)-4-(2,3-epoxypropylamino)-9, 10-anthracenedione], the values for the IC50 in test [1] and in test [2] were 25 nM and above 25000 nM, respectively.
